Results from patent US7960588B2, “Benzyl cycloalkyl sphingosine 1-phosphate receptor modulators” (University of Virginia Patent Foundation, priority 2007, dated 2011).

Tested on: blood lymphocytes
Assay: Lymphopenia assay (circulating lymphocyte counts after oral gavage)
Type: in vivo
Conditions: mice; for lymphopenia (circulating lymphocyte counts): single dose 10 mg/kg in 2% hydroxypropyl beta-cyclodextrin, blood drawn after 18 hours
Experimental: The test compounds VPC122096 (benzylcyclopentyl), VPC122093 (benzylcyclohexyl) or VPC122097 (benzylcycloheptyl) compounds are dissolved in 2% hydroxypropyl beta-cyclodextrin and administered to mice by oral gavage at doses from 0.01 to 10 mg/kg body weight. After 24 hours (or other specified times), the mice are lightly anesthetized and ca. 0.1 ml of blood is drawn from the orbital sinus. The number of lymphocytes (in thousands per microliter of blood; normal is 4-11) is determined using a Hemavet blood analyzer. There were three mice per group, male, 10-11 weeks old, and the strain was mixed sv129×C57BL/6.
The test compounds VPC122096, VPC122097, or VPC122093 were dissolved in 2% aqueous hydroxypropyl beta-cyclodextrin and introduced into mice by oral gavage at 10 mg/kg (Three mice per group). Blood was drawn after 18 hours and examined. […] The results are illustrated in FIG. 3.
The test compound VPC122096, was dissolved in 2% aqueous hydroxypropyl beta-cyclodextrin (vehicle) and administered to mice orally (gavage) at doses of 0.01 mg/kg, 0.03 mg/kg, 0.1 mg/kg, 0.3 mg/kg, 1 mg/kg, and 3 mg/kg to provide a dose response curve (three-four mice per group, adult, C57Bl/6 strain). The blood samples were taken at 18 hours and 42 hours. Three mice per group, male, 10-11 week old sv129/C57Bl6 strain. The results are illustrated in FIG. 4. The ordinate represents lymphocytes in K/μl. The abscissa represents time in days after administration of a single dose. The ordinate represents lymphocytes in K/μl. The abscissa represents dose in milligram compound per kilogram body weight (mpk).
The duration of the effect of the test compounds was evaluated after administration of test compound VPC122096, dissolved in 2% aqueous hydroxypropyl beta-cyclodextrin (vehicle) and administered to mice orally (gavage). […] The blood samples were taken at 16 hours, 4 days, 12 days, and 19 days. FIG. 5 illustrates total blood lymphocyte count following the single dose of VPC122096 or vehicle.

Row | Compound | lymphopenia (circulating lymphocyte counts) (oral gavage) | lymphopenia, duration of the effect (total blood lymphocyte count) (oral gavage, single dose (1.0 mg/kg per FIG. 5), blood samples at 16 hours, 4 days, 12 days, 19 days) | duration of lymphopenia (single ED95 dose, oral)
1 | CCCCCCCCc1ccc(CC2CCCC(CO)C2N)cc1 (centres unmarked) [VPC122093] | evoked lymphopenia |  | 
2 | CCCCCCCCc1ccc(CC2CCCC2(N)CO)cc1 (centres unmarked) [VPC122096, (1-amino-2-(4′-octylbenzyl)cyclopentyl)methanol] | evoked lymphopenia | evoked a long lasting lymphopenia | a week or more
3 | CCCCCCCCc1ccc(CC2CCCCCC2(N)CO)cc1 (centres unmarked) [VPC122097] | evoked lymphopenia |  | 
